The molecules below were run against human ACC2 (Homo sapiens (Human), UniProt O00763) (assay: ACC2 assay (spectrophotometric 384 well assay, NADH-linked kinetic method)). Settings: hACC2 construct lacking the 128 N-terminal amino acids; 25° C., 340 nm over 15 minutes.
Chain of human ACC2 (O00763 129-2458): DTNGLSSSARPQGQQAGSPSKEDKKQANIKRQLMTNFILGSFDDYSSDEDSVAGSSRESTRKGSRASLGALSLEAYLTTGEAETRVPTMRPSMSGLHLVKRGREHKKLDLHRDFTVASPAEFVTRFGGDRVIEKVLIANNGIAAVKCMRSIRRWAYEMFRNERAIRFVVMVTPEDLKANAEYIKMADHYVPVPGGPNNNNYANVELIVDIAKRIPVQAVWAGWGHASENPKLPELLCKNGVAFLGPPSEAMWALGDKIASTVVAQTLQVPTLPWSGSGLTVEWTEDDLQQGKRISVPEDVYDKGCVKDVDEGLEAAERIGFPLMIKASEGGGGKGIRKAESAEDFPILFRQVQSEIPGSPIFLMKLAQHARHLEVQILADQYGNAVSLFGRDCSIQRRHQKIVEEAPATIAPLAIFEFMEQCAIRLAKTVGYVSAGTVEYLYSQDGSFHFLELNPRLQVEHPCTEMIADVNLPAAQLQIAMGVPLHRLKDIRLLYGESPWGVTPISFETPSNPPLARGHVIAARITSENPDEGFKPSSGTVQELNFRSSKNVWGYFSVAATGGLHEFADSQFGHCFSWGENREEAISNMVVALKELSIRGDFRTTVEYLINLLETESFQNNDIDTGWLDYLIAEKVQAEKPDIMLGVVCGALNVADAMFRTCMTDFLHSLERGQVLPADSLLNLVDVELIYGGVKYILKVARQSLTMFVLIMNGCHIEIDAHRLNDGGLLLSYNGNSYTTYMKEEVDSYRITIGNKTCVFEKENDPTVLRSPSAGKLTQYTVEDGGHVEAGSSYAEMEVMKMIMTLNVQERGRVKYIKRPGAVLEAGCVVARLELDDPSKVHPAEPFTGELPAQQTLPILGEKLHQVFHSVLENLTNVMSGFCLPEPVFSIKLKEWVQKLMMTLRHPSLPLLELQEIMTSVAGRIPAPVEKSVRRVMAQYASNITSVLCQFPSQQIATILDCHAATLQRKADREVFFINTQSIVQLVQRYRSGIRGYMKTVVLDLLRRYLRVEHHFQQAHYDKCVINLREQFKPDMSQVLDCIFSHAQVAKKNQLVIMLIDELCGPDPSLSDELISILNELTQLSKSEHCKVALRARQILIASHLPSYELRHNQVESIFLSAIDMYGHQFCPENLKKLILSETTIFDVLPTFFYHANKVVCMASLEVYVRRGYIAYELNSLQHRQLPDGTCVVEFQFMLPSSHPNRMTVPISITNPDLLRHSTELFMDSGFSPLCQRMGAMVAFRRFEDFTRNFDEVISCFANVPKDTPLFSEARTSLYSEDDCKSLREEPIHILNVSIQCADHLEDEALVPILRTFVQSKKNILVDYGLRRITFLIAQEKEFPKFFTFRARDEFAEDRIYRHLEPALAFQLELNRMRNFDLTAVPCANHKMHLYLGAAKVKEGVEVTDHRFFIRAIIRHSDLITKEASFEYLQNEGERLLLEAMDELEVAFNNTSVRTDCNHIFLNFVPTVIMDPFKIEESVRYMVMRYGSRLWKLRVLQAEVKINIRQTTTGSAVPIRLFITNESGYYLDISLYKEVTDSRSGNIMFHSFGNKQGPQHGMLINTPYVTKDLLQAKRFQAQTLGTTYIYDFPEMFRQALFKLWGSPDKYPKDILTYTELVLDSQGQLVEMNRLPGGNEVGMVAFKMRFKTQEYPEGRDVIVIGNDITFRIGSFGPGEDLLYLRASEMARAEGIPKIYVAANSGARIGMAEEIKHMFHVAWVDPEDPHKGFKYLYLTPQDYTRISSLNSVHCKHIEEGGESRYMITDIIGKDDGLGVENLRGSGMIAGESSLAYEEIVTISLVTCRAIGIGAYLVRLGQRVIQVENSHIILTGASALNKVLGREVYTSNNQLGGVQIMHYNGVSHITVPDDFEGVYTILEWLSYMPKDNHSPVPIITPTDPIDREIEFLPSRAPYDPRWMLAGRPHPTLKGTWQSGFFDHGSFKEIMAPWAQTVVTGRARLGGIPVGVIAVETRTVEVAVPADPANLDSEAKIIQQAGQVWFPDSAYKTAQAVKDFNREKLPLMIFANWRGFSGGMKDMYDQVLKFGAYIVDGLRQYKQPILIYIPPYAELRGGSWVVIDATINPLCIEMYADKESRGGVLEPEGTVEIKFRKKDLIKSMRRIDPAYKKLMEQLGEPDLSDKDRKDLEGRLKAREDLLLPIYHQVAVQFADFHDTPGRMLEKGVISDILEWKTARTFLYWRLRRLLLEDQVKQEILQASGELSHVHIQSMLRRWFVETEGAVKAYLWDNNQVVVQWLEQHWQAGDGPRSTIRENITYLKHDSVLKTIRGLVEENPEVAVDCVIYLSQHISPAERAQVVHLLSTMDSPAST
Type: biochemical
Protocol: Spectrophotometric 384 Well Assay
Malonyl CoA formation by acetyl CoA carboxylases is stoichometrically linked to the consumption of ATP. ACC2 activity is measured in a NADH-linked kinetic method measuring ADP generated during the ACC reaction using a coupled lactate dehydrogenase/pyruvate kinase reaction.
The protein is then expressed in insect cells using a baculoviral expression system. Protein purification is performed by anion exchange.
All compounds are dissolved in dimethyl sulfoxide (DMSO) to a concentration of 10 mM.
The enzymatic reaction is then started by addition of a mixture of NADH, acetyl
Coenzyme A (both […].) and ATP (500 uM f.c.). The decrease of the optical density (slope S) is then determined at 25° C. at a wavelength of 340 nm over 15 minutes in a spectrophotometric reader.
Each assay microtiter plate contains wells with vehicle instead of compound as controls for the non-inhibited enzyme (100% CTL; ‘HIGH’) and wells without acetyl-CoA as controls for non-specific NADH degradation (0% CTL; ‘LOW’).
An IC50 of 410 nM was found for CCNC(=O)C(C)c1ccc(O[C@@H]2CCN(c3cccc(C)c3)C2)cc1 (stereo partly drawn) [Example 7.16] in this work. An IC50 of 429 nM was found for CCNC(=O)C(C)c1ccc(O[C@@H]2CCN(c3ccc(OCC4CCC4)cc3)C2)cc1 (stereo partly drawn) [Example 7.18] in this work. An IC50 of 435 nM was found for CCNC(=O)C(C)c1ccc(O[C@@H]2CCN(c3cccc(Cl)c3)C2)cc1 (stereo partly drawn) [Example 7.19] in this work. An IC50 of 445 nM was found for CCNC(=O)C(C)c1ccc(O[C@@H]2CCN(c3cccc(N(C)C)n3)C2)cc1 (stereo partly drawn) [Example 7.20] in this work. An IC50 of 454 nM was found for CCNC(=O)C(C)c1ccc(O[C@@H]2CCN(c3ccc(OCCC4CC4)cc3)C2)cc1 (stereo partly drawn) [Example 7.21] in this work. An IC50 of 455 nM was found for CCNC(=O)C(C)c1ccc(O[C@@H]2CCN(c3ccc(OC(C)C)cc3)C2)cc1 (stereo partly drawn) [Example 7.22] in this work. An IC50 of 470 nM was found for CCNC(=O)C(C)c1ccc(O[C@@H]2CCN(c3ccc(OCC4CC4(F)F)nc3C#N)C2)cc1 (stereo partly drawn) [Example 7.23] in this work. An IC50 of 473 nM was found for CCNC(=O)C(C)c1ccc(O[C@@H]2CCN(c3ccc(OCC4CC4)nc3)C2)cc1 (stereo partly drawn) [Example 7.24] in this work. An IC50 of 500 nM was found for CCNC(=O)C(C)c1ccc(O[C@@H]2CCN(c3nc(C)ccc3F)C2)cc1 (stereo partly drawn) [Example 7.25] in this work. An IC50 of 563 nM was found for CCNC(=O)C(C)c1ccc(O[C@@H]2CCN(c3ccc(F)c(C)n3)C2)cc1 (stereo partly drawn) [Example 7.27] in this work. An IC50 of 583 nM was found for CCNC(=O)C(C)c1ccc(O[C@@H]2CCN(c3ccc(OC4CCCCC4)nc3)C2)cc1 (stereo partly drawn) [Example 7.28] in this work. An IC50 of 600 nM was found for CCNC(=O)C(C)c1ccc(O[C@@H]2CCN(c3ccc(OC4CC4)cc3C)C2)cc1 (stereo partly drawn) [Example 7.29] in this work. An IC50 of 630 nM was found for CCNC(=O)C(C)c1ccc(O[C@@H]2CCN(c3cccc(OC(C)CC)c3)C2)cc1 (stereo partly drawn) [Example 7.30] in this work. An IC50 of 639 nM was found for CCNC(=O)C(C)c1ccc(O[C@@H]2CCN(c3ccc(F)c(Cl)c3)C2)cc1 (stereo partly drawn) [Example 7.31] in this work. An IC50 of 821 nM was found for CCNC(=O)C(C)c1ccc(O[C@@H]2CCN(c3cccc(C)n3)C2)cc1 (stereo partly drawn) [Example 7.33] in this work. An IC50 of 104 nM was found for CCNC(=O)C(C)c1ccc(O[C@@H]2CCN(c3ncc(OC4CCCC4)cc3F)C2)cc1 (stereo partly drawn) [Example 8.1, 2-(4-[1-(5-Cyclopentyloxy-3-fluoro-pyridin-2-yl)-(R)-pyrrolidin-3-yloxy]-phenyl)-N-ethyl-propionamide] in this work. An IC50 of 353 nM was found for CCNC(=O)C(C)c1ccc(O[C@@H]2CCN(c3ccc(F)c(C(F)(F)F)n3)C2)cc1 (stereo partly drawn) [Example 8.2] in this work. An IC50 of 543 nM was found for CCNC(=O)C(C)c1ccc(O[C@@H]2CCN(c3ncc(OC(C)C)cc3F)C2)cc1 (stereo partly drawn) [Example 8.3] in this work. An IC50 of 910 nM was found for CCNC(=O)C(C)c1ccc(O[C@@H]2CCN(c3ccc(OC4CC4)cn3)C2)cc1 (stereo partly drawn) [Example 8.4] in this work. An IC50 of 444 nM was found for CCNC(=O)C(C)c1ccc(O[C@@H]2CCN(c3ncc(OCC4CC4(F)F)cn3)C2)cc1 (stereo partly drawn) [Example 9.1, 2-(4-(1-[5-(2,2-Difluoro-cyclopropylmethoxy)-pyrimidin-2-yl]-(R)-pyrrolidin-3-yloxy)-phenyl)-N-ethyl-propionamide] in this work. An IC50 of 975 nM was found for CCNC(=O)C(C)c1ccc(O[C@@H]2CCN(c3ccnc(C(F)(F)F)n3)C2)cc1 (stereo partly drawn) [Example 9.2] in this work.
